Here are results for 16 molecules from US20200179428A1, “CYCLIC PHOSPHATE SUBSTITUTED NUCLEOSIDE DERIVATIVES AND METHODS OF USE THEREOF FOR THE TREATMENT OF VIRAL DISEASES” (priority 2016, published 2020).

The first data set relates to replicon cells (1b-Con1). Nature of the data set: Replicon activity assay (replicon RNA level by real-time RT-PCR, Taqman). The class given is cell-based. The settings on record: Hepatitis C virus, HCV replicon genotype 1b; read-out: EC50 (1b) Range. The protocol: (§1) To measure cell-based anti-HCV activity of the compounds of the present invention, replicon cells (1b-Con1) are seeded at 5000 cells/well in 96-well plates one day prior to treatment with a compound of the invention. Various concentrations of a test compound of the invention in DMSO are then added to the replicon cells, with the final concentration of DMSO at 0.5% and fetal bovine serum at 10% in the assay media. Cells are harvested three days post-dosing, and the replicon RNA level is determined using real-time RT-PCR (Taqman assay) with GAPDH RNA as endogenous control. EC50 values are calculated from experiments with 10 serial twofold dilutions of the inhibitor in triplicate. To measure cytotoxicity in replicon cells of an inhibitor, an MTS assay is performed according to the manufacturer's protocol for CellTiter 96 Aqueous One Solution Cell Proliferation Assay (Promega, Cat # G3580) three days post dosing on cells treated identically as in replicon activity assays. […] Cytotoxicity in other types of cells may be measured using the same MTS protocol.
Background: A replicon is a self-replicating genome or part of one, used to study replication in cells.
Consider `CC(C)OC(=O)C(C)(C)CO[P@@]1(=O)OC[C@H]2O[C@@H](n3ccc(=O)[nH]c3=O)[C@](C)(C#N)[C@@H]2O1` [Compound 16A], for which the EC50 is greater than 10 µM.
The same measure, in the same setting: the figure for `CO[C@H](CO[P@]1(=O)OC[C@H]2O[C@@H](n3ccc(=O)[nH]c3=O)[C@](C)(N)[C@@H]2O1)CC(=O)OC(C)C` [Compound 61B] is greater than 10 µM.
Take `CC(=O)O[C@@H](CO[P@]1(=O)OC[C@H]2O[C@@H](n3ccc(=O)[nH]c3=O)[C@](C)(N)[C@@H]2O1)[C@@H](OC(C)=O)C(=O)OC(C)C` [Compound 54B]: the EC50 was greater than 10 µM.
With `CC(C)OC(=O)C(CCO[P@]1(=O)OC[C@H]2O[C@@H](n3ccc(=O)[nH]c3=O)[C@](C)(N)[C@@H]2O1)c1ccccc1` (some centres unmarked) [Compound 33B], the concentration giving a half-maximal response (EC50) was greater than 10 µM.
The same measure, in the same setting: as for `CC(C)OC(=O)C(C)(C)CCO[P@]1(=O)OC[C@H]2O[C@@H](n3ccc(=O)[nH]c3=O)[C@](C)(N)[C@@H]2O1` [Compound 19B], the figure is greater than 10 µM.
Still for that read-out and setting: the figure for `C#C[C@]1(C)[C@@H]2O[P@](=O)(OC[C@H](NC(=O)OC)C(=O)OC(C)C)OC[C@H]2O[C@H]1n1ccc(=O)[nH]c1=O` [Compound 40B] is greater than 10 µM; for `C#C[C@]1(C)[C@@H]2O[P@](=O)(OCCC(CC)C(=O)OC3CCCC3)OC[C@H]2O[C@H]1n1ccc(=O)[nH]c1=O` (some centres unmarked) [Compound 30B] it is greater than 10 µM; for `C#C[C@@]1(OC(=O)CCCCCC)[C@@H]2O[P@@](=O)(OCC[C@@H](C)C(=O)OC(C)C)OC[C@H]2O[C@H]1n1ccc(=O)[nH]c1=O` [Compound 84A1] it is no more than 0.25 µM.
Regarding `C#C[C@@]1(O)[C@@H]2OP(=O)(OCC[C@@H](C)C(=O)OC(C)C)OC[C@H]2O[C@H]1n1ccc(=O)[nH]c1=O` (single isomer, unassigned) [Compound 7A1], the concentration for a half-maximal effect (EC50) was in the range of 0.25 to 1 µM.
On the same count and under the same terms, as for `C#C[C@]1(C)[C@@H]2O[P@](=O)(OCCC(C)C(=O)OC3CCCCC3)OC[C@H]2O[C@H]1n1ccc(=O)[nH]c1=O` (some centres unmarked) [Compound 77B], the figure is no more than 0.25 µM.
The same measure, in the same setting: as for `C#C[C@@]1(OC(=O)CCC)[C@@H]2O[P@@](=O)(OCC[C@H](C)C(=O)OC(C)C)OC[C@H]2O[C@H]1n1ccc(=O)[nH]c1=O` [Compound 85A2], the figure is no more than 0.25 µM; as for `C#C[C@]1(C)[C@@H]2O[P@](=O)(OCCC(CO)C(=O)OC(C)C)OC[C@H]2O[C@H]1n1ccc(=O)[nH]c1=O` (some centres unmarked) [Compound 44B], greater than 10 µM; as for `C#C[C@]1(C)[C@@H]2O[P@](=O)(OC[C@@H](F)CC(=O)OC(C)C)OC[C@H]2O[C@H]1n1ccc(=O)[nH]c1=O` [Compound 64B], 0.25 to 1 µM.
For `CCOC(=O)C1(CCO[P@]2(=O)OC[C@H]3O[C@@H](n4ccc(=O)[nH]c4=O)[C@](C)(N)[C@@H]3O2)CC1` [Compound 28B], the concentration for a half-maximal effect (EC50) is greater than 10 µM.
The same measure, in the same setting: as for `CC(C)OC(=O)COCCO[P@]1(=O)OC[C@H]2O[C@@H](n3ccc(=O)[nH]c3=O)[C@](C)(N)[C@@H]2O1` [Compound 69B], the figure is greater than 10 µM; as for `C#C[C@]1(C)[C@@H]2O[P@@](=O)(OC[C@H](CC(=O)OC(C)C)OC)OC[C@H]2O[C@H]1n1ccc(=O)[nH]c1=O` [Compound 60A], greater than 10 µM.

Tested on in a further data set: not listed separately
Kind of data set: Cytotoxicity MTS assay (CellTiter 96 Aqueous One Solution) in replicon cells. In kind it is cell-based. The settings on record: HCV replicon cells (1b-Con1); EDU; read-out: CC50 (EDU) Range. The protocol:
as §1
A general note: Tetrazolium assays rely on reduction of a dye to a coloured formazan, in cell work by metabolically active cells.
For the molecule `CC(C)OC(=O)C(C)(C)CO[P@@]1(=O)OC[C@H]2O[C@@H](n3ccc(=O)[nH]c3=O)[C@](C)(C#N)[C@@H]2O1` [Compound 16A], the cytotoxic concentration (CC50) at 3 days is greater than 50 µM.
On the same count and under the same terms, as for `CO[C@H](CO[P@]1(=O)OC[C@H]2O[C@@H](n3ccc(=O)[nH]c3=O)[C@](C)(N)[C@@H]2O1)CC(=O)OC(C)C` [Compound 61B], the figure is greater than 50 µM.
In the case of `CC(=O)O[C@@H](CO[P@]1(=O)OC[C@H]2O[C@@H](n3ccc(=O)[nH]c3=O)[C@](C)(N)[C@@H]2O1)[C@@H](OC(C)=O)C(=O)OC(C)C` [Compound 54B], the CC50 at 3 days is greater than 50 µM.
On the same count and under the same terms, as for `CC(C)OC(=O)C(CCO[P@]1(=O)OC[C@H]2O[C@@H](n3ccc(=O)[nH]c3=O)[C@](C)(N)[C@@H]2O1)c1ccccc1` (some centres unmarked) [Compound 33B], the figure is greater than 50 µM; as for `CC(C)OC(=O)C(C)(C)CCO[P@]1(=O)OC[C@H]2O[C@@H](n3ccc(=O)[nH]c3=O)[C@](C)(N)[C@@H]2O1` [Compound 19B], greater than 50 µM; as for `C#C[C@]1(C)[C@@H]2O[P@](=O)(OC[C@H](NC(=O)OC)C(=O)OC(C)C)OC[C@H]2O[C@H]1n1ccc(=O)[nH]c1=O` [Compound 40B], greater than 50 µM.
Same read-out and setting: as for `C#C[C@]1(C)[C@@H]2O[P@](=O)(OCCC(CC)C(=O)OC3CCCC3)OC[C@H]2O[C@H]1n1ccc(=O)[nH]c1=O` (some centres unmarked) [Compound 30B], the figure is greater than 50 µM; as for `C#C[C@@]1(OC(=O)CCCCCC)[C@@H]2O[P@@](=O)(OCC[C@@H](C)C(=O)OC(C)C)OC[C@H]2O[C@H]1n1ccc(=O)[nH]c1=O` [Compound 84A1], greater than 50 µM; as for `C#C[C@@]1(O)[C@@H]2OP(=O)(OCC[C@@H](C)C(=O)OC(C)C)OC[C@H]2O[C@H]1n1ccc(=O)[nH]c1=O` (single isomer, unassigned) [Compound 7A1], greater than 50 µM.
In the case of `C#C[C@]1(C)[C@@H]2O[P@](=O)(OCCC(C)C(=O)OC3CCCCC3)OC[C@H]2O[C@H]1n1ccc(=O)[nH]c1=O` (some centres unmarked) [Compound 77B], the CC50 at 3 days is greater than 50 µM.
`C#C[C@@]1(OC(=O)CCC)[C@@H]2O[P@@](=O)(OCC[C@H](C)C(=O)OC(C)C)OC[C@H]2O[C@H]1n1ccc(=O)[nH]c1=O` [Compound 85A2]: the half-maximal cytotoxic concentration (CC50) at 3 days is greater than 50 µM.
Same read-out and setting: the figure for `C#C[C@]1(C)[C@@H]2O[P@](=O)(OCCC(CO)C(=O)OC(C)C)OC[C@H]2O[C@H]1n1ccc(=O)[nH]c1=O` (some centres unmarked) [Compound 44B] is greater than 50 µM.
As for `C#C[C@]1(C)[C@@H]2O[P@](=O)(OC[C@@H](F)CC(=O)OC(C)C)OC[C@H]2O[C@H]1n1ccc(=O)[nH]c1=O` [Compound 64B], the CC50 at 3 days is greater than 50 µM.
With `CCOC(=O)C1(CCO[P@]2(=O)OC[C@H]3O[C@@H](n4ccc(=O)[nH]c4=O)[C@](C)(N)[C@@H]3O2)CC1` [Compound 28B], the CC50 at 3 days is greater than 50 µM.
Consider `CC(C)OC(=O)COCCO[P@]1(=O)OC[C@H]2O[C@@H](n3ccc(=O)[nH]c3=O)[C@](C)(N)[C@@H]2O1` [Compound 69B], for which the CC50 at 3 days is greater than 50 µM.
With `C#C[C@]1(C)[C@@H]2O[P@@](=O)(OC[C@H](CC(=O)OC(C)C)OC)OC[C@H]2O[C@H]1n1ccc(=O)[nH]c1=O` [Compound 60A], the CC50 at 3 days is greater than 50 µM.

For orientation: EC50 means the concentration that produces a half-maximal response. As usually defined, the CC50 is the concentration giving 50% cytotoxicity.
